From the supplement of paper PMC11451515

System: SEM cells
Experiment: cell viability relative to DMSO control; higher = less cytotoxic
Conditions: 48 h
Outline: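 Library compounds in DMSO were pin-dosed into 1536-well plates (5 μl) holding NOMO1 or SEM (500 cells/well) or P12-Ichikawa (1000 cells/well) leukemia cells, across an 11-point threefold series of 47 μM to 0.79 nM. Each cell line had been adapted for at least four passages in each medium. CellTiter-Glo One luminescence was read after 48 h at 37°C. Viability is the per-plate percentage relative to DMSO wells, with cell-free wells as background.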

[1] = HPLM + 10% dialyzed FBS, 0.000781 µM
[2] = HPLM + 10% dialyzed FBS, 0.00234 µM
[3] = HPLM + 10% dialyzed FBS, 0.00702 µM
[4] = HPLM + 10% dialyzed FBS, 0.0211 µM
[5] = HPLM + 10% dialyzed FBS, 0.0632 µM
[6] = HPLM + 10% dialyzed FBS, 0.19 µM
[7] = HPLM + 10% dialyzed FBS, 0.569 µM
[8] = HPLM + 10% dialyzed FBS, 1.71 µM
[9] = HPLM + 10% dialyzed FBS, 5.12 µM
[10] = HPLM + 10% dialyzed FBS, 15.4 µM
[11] = HPLM + 10% dialyzed FBS, 46.1 µM
[12] = RPMI 5 mM glucose + 10% FBS, 0.000781 µM
[13] = RPMI 5 mM glucose + 10% FBS, 0.00234 µM
[14] = RPMI 5 mM glucose + 10% FBS, 0.00702 µM
[15] = RPMI 5 mM glucose + 10% FBS, 0.0211 µM
[16] = RPMI 5 mM glucose + 10% FBS, 0.0632 µM
[17] = RPMI 5 mM glucose + 10% FBS, 0.19 µM
[18] = RPMI 5 mM glucose + 10% FBS, 0.569 µM
[19] = RPMI 5 mM glucose + 10% FBS, 1.71 µM
[20] = RPMI 5 mM glucose + 10% FBS, 5.12 µM
[21] = RPMI 5 mM glucose + 10% FBS, 15.4 µM
[22] = RPMI 5 mM glucose + 10% FBS, 46.1 µM
[23] = RPMI 5 mM glucose + 10% dialyzed FBS, 0.000781 µM
[24] = RPMI 5 mM glucose + 10% dialyzed FBS, 0.00234 µM
[25] = RPMI 5 mM glucose + 10% dialyzed FBS, 0.00702 µM
[26] = RPMI 5 mM glucose + 10% dialyzed FBS, 0.0211 µM
[27] = RPMI 5 mM glucose + 10% dialyzed FBS, 0.0632 µM
[28] = RPMI 5 mM glucose + 10% dialyzed FBS, 0.19 µM
[29] = RPMI 5 mM glucose + 10% dialyzed FBS, 0.569 µM
[30] = RPMI 5 mM glucose + 10% dialyzed FBS, 1.71 µM
[31] = RPMI 5 mM glucose + 10% dialyzed FBS, 5.12 µM
[32] = RPMI 5 mM glucose + 10% dialyzed FBS, 15.4 µM
[33] = RPMI 5 mM glucose + 10% dialyzed FBS, 46.1 µM

COc1cc([C@@H]2c3cc4c(cc3[C@H](O)[C@H]3COC(=O)[C@H]23)OCO4)cc(OC)c1OC showed a cell viability [1] of 78.4%, a cell viability [2] of 52.4% and a cell viability [3] of 20%. It also gave a cell viability [4] of 21.5%, a cell viability [5] of 12.9% and a cell viability [6] of 14.8%. It also gave a cell viability [7] of 11.1%, a cell viability [8] of 10.8% and a cell viability [9] of 7.23%. For the same compound, the cell viability [10] was 6.55%, the cell viability [11] was 3.29% and the cell viability [12] was 102%. The cell viability [13] was 38.7%, the cell viability [14] was 14.9% and the cell viability [15] was 18.2%. The cell viability [16] was 8.76%, the cell viability [17] was 10.5% and the cell viability [18] was 7.96%. It also gave a cell viability [19] of 7.03%, a cell viability [20] of 4.97% and a cell viability [21] of 4.12%. For the same compound, the cell viability [22] was 3.41%, the cell viability [23] was 79.2% and the cell viability [24] was 52.7%. It also gave a cell viability [25] of 16.7%, a cell viability [26] of 20.1% and a cell viability [27] of 7.53%. For the same compound, the cell viability [28] was 9.95%, the cell viability [29] was 7.34% and the cell viability [30] was 6.19%. It also gave a cell viability [31] of 4.79%, a cell viability [32] of 3.29% and a cell viability [33] of 3.02%.
In the case of CCCCCCCN(CC)CCCC(O)c1ccc(NS(C)(=O)=O)cc1.CCCCCCCN(CC)CCCC(O)c1ccc(NS(C)(=O)=O)cc1.O=C(O)/C=C/C(=O)O (centres undefined), the cell viability [1] was 88.9%, the cell viability [2] was 93.2% and the cell viability [3] was 95.1%. It also gave a cell viability [4] of 104%, a cell viability [5] of 74.8% and a cell viability [6] of 109%. It also gave a cell viability [7] of 96.7%, a cell viability [8] of 108% and a cell viability [9] of 97.7%. It also gave a cell viability [10] of 114%, a cell viability [11] of 15% and a cell viability [12] of 83.9%. The cell viability [13] was 102%, the cell viability [14] was 93.3% and the cell viability [15] was 90.7%. It also gave a cell viability [16] of 56.4%, a cell viability [17] of 95.4% and a cell viability [18] of 88.9%. For the same compound, the cell viability [19] was 122%, the cell viability [20] was 96.5% and the cell viability [21] was 94%. The cell viability [22] was 10.3%, the cell viability [23] was 87.4% and the cell viability [24] was 99.9%. It also gave a cell viability [25] of 105%, a cell viability [26] of 103% and a cell viability [27] of 74.6%. The cell viability [28] was 90.6%, the cell viability [29] was 112% and the cell viability [30] was 114%. For the same compound, the cell viability [31] was 94.2%, the cell viability [32] was 91.9% and the cell viability [33] was 11.6%.
O=C1N\N=C(\C[C@@H]2CCN(C2)C(=O)C3CC3)N1C4=CC=C(C=C4)C5=CC=C6OC=CC6=C5 showed a cell viability [1] of 77.5%, a cell viability [2] of 76.9% and a cell viability [3] of 80.2%. For the same compound, the cell viability [4] was 85.4%, the cell viability [5] was 70.8% and the cell viability [6] was 61.7%. For the same compound, the cell viability [7] was 78.5%, the cell viability [8] was 71.3% and the cell viability [9] was 77.8%. The cell viability [10] was 37.1%, the cell viability [11] was 45.6% and the cell viability [12] was 109%. It also gave a cell viability [13] of 116%, a cell viability [14] of 120% and a cell viability [15] of 107%. For the same compound, the cell viability [16] was 113%, the cell viability [17] was 76.7% and the cell viability [18] was 110%. It also gave a cell viability [19] of 97.1%, a cell viability [20] of 125% and a cell viability [21] of 64.3%. For the same compound, the cell viability [22] was 51.9%, the cell viability [23] was 73.3% and the cell viability [24] was 65%. For the same compound, the cell viability [25] was 79.9%, the cell viability [26] was 84.3% and the cell viability [27] was 81.5%. For the same compound, the cell viability [28] was 56.5%, the cell viability [29] was 80.1% and the cell viability [30] was 82.3%. It also gave a cell viability [31] of 96.6%, a cell viability [32] of 46.5% and a cell viability [33] of 31.7%.
